Values after ≈ are worked out from the molar mass of the structure shown.
Assays:
[1] = Phenytoin dissolution study (spray dried dispersions or crystalline API) in phosphate buffer pH 6.5 with simulated intestinal fluid powder, 37° C., HPLC; format: physicochemical; conditions: crystalline phenytoin
Protocol: (§1) Samples (either spray dried dispersions or crystalline API as received) were weighed into 2.0 mL conical microcentrifuge tubes in duplicate. Phosphate buffer solution (82 mM sodium chloride, 20 mM sodium phosphate dibasic, 47 mM potassium phosphate monobasic, 0.5 wt % simulated intestinal fluid powder, pH 6.5) at 37° C. was added in an amount that would produce a final concentration of drug of 1000 mg/L if all material was fully dissolved (e.g., 7.2 mg of spray dried dispersion consisting of 1.8 mg griseofulvin and 5.4 mg polymer was diluted with 1.8 mL buffer solution). Samples were vortexed 1 min and set in an isothermal aluminum sample holder set at 37° C. At each time point, samples were centrifuged 1 min at >13,000×g (g=gravitational force on earth), and a 50 μl aliquot was removed and diluted with 250 μl methanol. The samples were again vortexed 30 s and held at 37° C. until the next time point. Drug concentration in each aliquot was determined by reverse phase HPLC.
Probucol and phenytoin concentrations were quantified using a Agilent 1260 Infinity Quaternary HPLC equipped. The HPLC consisted of a reversed-phase EC-C18 column (Poroshell 120, 4.6×50 mm, 2.7 μm, Agilent, USA). The mobile phase was acetonitrile: water 96:4 for probucol and acetonitrile: water 40:60 for phenytoin, and the flow rate was 1.0 mL/min. A 10 μL aliquot of sample was injected, and the column effluent was detected at 241 nm for probucol (eluted at 2.90 min) and 225 nm for phenytoin (eluted at 1.40 min) with a UV detector (1260 Infinity Multiple Wavelength Detector, Agilent). The standard curve linearity was verified from 0.1 to 1000 μg/mL with an r^2 value of at least 0.999.
Two different drugs, probucol and phenytoin, were formulated at different weight percent, using the polymers disclosed herein (see Table 1 for polymer sample numbers). […]

[2] = Probucol dissolution study (spray dried dispersions or crystalline API) in phosphate buffer pH 6.5 with simulated intestinal fluid powder, 37° C., HPLC; format: physicochemical; conditions: pH 6.5, fassif, thermodynamic from solid
Protocol: as §1
Probucol and phenytoin concentrations were quantified using a Agilent 1260 Infinity Quaternary HPLC equipped. […] A 10 μL aliquot of sample was injected, and the column effluent was detected at 241 nm for probucol (eluted at 2.90 min) and 225 nm for phenytoin (eluted at 1.40 min) with a UV detector (1260 Infinity Multiple Wavelength Detector, Agilent). […]

| Concentration (phenytoin dissolution control) ([1]; Time 0) [ng/mL] | Concentration (phenytoin dissolution control) ([1]; Time 4) [ng/mL] | Concentration (phenytoin dissolution control) ([1]; Time 10) [ng/mL] | Concentration (phenytoin dissolution control) ([1]; Time 20) [ng/mL] | Concentration (phenytoin dissolution control) ([1]; Time 40) [ng/mL] | Concentration (phenytoin dissolution control) ([1]; Time 90) [ng/mL] | Concentration (phenytoin dissolution control) ([1]; Time 180) [ng/mL] | Concentration (phenytoin dissolution control) ([1]; Time 360) [ng/mL] | solubility [2] [µg/mL] | Compound |
| --- | --- | --- | --- | --- | --- | --- | --- | --- | --- |
| 0 | 38000 | 46000 | 45000 | 48000 | 51000 | 45000 | 48000 |  | O=C1NC(=O)C(c2ccccc2)(c2ccccc2)N1 [Phenytoin, phenytoin] |
|  |  |  |  |  |  |  |  | 4 (≈ 7.74 µM) | CC(C)(Sc1cc(C(C)(C)C)c(O)c(C(C)(C)C)c1)Sc1cc(C(C)(C)C)c(O)c(C(C)(C)C)c1 [probucol] |

— US9944740B2, “Sugar containing, amphiphilic copolymers” (REGENTS OF THE UNIVERSITY OF MINNESOTA, priority 2013, dated 2018)
